Reference: patent publication US20030077740A1, “Presenilin/Crk binding polypeptides (PCBP) and methods of use thereof” (priority 2001, published 2003)
Values belong to the compound of their own block, whether it stands above or below them. Residues, ends and D or L forms follow the SMILES beside them. *: point of attachment. Cbz = O=C(OCc1ccccc1)*

Tests used:
[1] = system: PBP; details: PS fragment fused to GAL4-DNA binding domain, PBPα-GAL4 activation domain, β-galactosidase assay
Description: The yeast two-hybrid system was used to screen for cytoplasmic proteins that interact with PSs. […] Yeast (Y190) were co-transformed with each of the PS1 constructs and a mouse brain cDNA library fused to the GAL4 activation domain in the pGAD424 vector (Clontech). Transformants were plated on yeast drop-out media (Clontech) contain g 20 mM 3-amino-1,2,4-triazole (3-AT), and after 10 days of incubation at 30° C., colonies were transferred to Nitropure membrane Micron Separation Inc., Westboro, MA), and the X-gal assay was performed.
To determine the minimal sequence of the large hydrophilic loop of PS that is required for the interaction with PBP, three deletion fragments of the loop were inserted into pGBT9 and the interaction with PBP was examined using the yeast two-hybrid system.

[2] = molecular target: T1, PS1 (Homo sapiens, UniProt P49768); assay: yeast two-hybrid interaction with PS1; format: binding; details: yeast two-hybrid assay
T1 construct: the large hydrophilic loop region of PS1 (amino acids 1-81, 429-468, 263-407, respectively) were inserted into the pGBT9 vector; expressed in transfected cells; host or cells: yeast Y190

[3] = molecular target: T2, large hydrophilic loop of PS1 (Homo sapiens, UniProt P49768); assay: co-immunoprecipitation in 293T cells, PS1 loop; format: binding; details: immunoprecipitation with anti-TAG, 48 hrs after transfection, PS1-FLAG loop
T2 construct: and a large hydrophilic loop (amino acids 263-407); expressed in transfected cells; host or cells: 293T human kidney cells, pCIS2 expression vector
Description: To confirm the yeast two-hybrid data, the interaction between PBP and PSs was assayed in mammalian cells by immunoprecipitation. Human kidney 293-T cells, and monkey kidney COS-7 cells were cultured in Dulbecco's modified Eagle's medium supplemented with 10% fetal calf serum at 37° C. in a 10% CO2 atmosphere. A nine-amino acid TAG epitope ([…]) (SEQ ID NO:6) was incorporated in-frame at the 3′ end of the PBP cDNA (PBP-TAG), and an eight amino acid FLAG epitope ([…]) (SEQ ID NO:7) was attached in frame at the 5′ end of the large hydrophilic loop of PS1 cDNA and at the 3′ end of full length PS1 cDNA as described previously (Kimura, H., Proc. Natl. Acad. Sci. (USA), 90:2165-2169 (1993)). The resulting fragments were inserted into the pCIS2 expression vector (Genentech, San Francisco, Calif.) for transient or constitutive expression. […]
For immunoprecipitation of the large hydrophilic loop of PSs or Crk with PBP, cells were lysed in RIPA buffer (100 mM NaCl, 0.5% NP-40, 0.5% DOC, 0.1% SDS, 50 mM Tris, pH 7.5, 1 mM PMSF and 1 μg/ml aprotinin, 1 μg/l leupeptin) on ice for 30 min. […] The bound antibodies were detected by the ECL-plus chemiluminescence system (Amersham, Arlington Heights, Ill.).

[4] = system: B103 (APP695) cells; assay: APP secretion by transfected B103 (APP695) cells, Western blotting; format: cell-based, rat; details: overexpression of the protein
[5] = system: APP695/PBP cells; assay: protease inhibitors on APP secretion and intracellular accumulation; format: cell-based, rat
Description: Cells and transfection: Neuronal cell line B103 (Schubert et al. (1974) Nature, 249, 224-227) was grown in Dulbecco's modified Eagle's medium (DMEM) supplemented with 10% heat-inactivated fetal bovine serum (FBS). B103 cells were transfected with APP695 using G418 selection (Schubert et al. (1989) Neuron, 3: 689-694) and with various plasmids by Lepfectamin2000 (GIBCO; NJ, USA) using puromycin selection for PBP or hygromycin for PS1, respectively. The stably transfected cells were subsequently cloned and screened for protein expression by western blot analysis.
Western blotting, metabolic labeling and immunoprecipitation: For western blotting, cells were washed twice with ice-cold PBS and lysed in lysis buffer (1% Triton, 50 mM Hepes pH 7.5, 50 mM NaCl, 5 mM EDTA, 1 mM Na3VO4, 50 mM NaF, 10 mM Na4P2O7, plus a mixture of protease inhibitors (Complete Mini; Roche, Ind., USA). Protein concentrations were determined by Coomassie Plus (Pierce; IL, USA). The same amount of protein from each sample was separated on Novex pre-cast polyacrylamide gels (Invitrogen; CA, USA), and transferred to Immobulin membranes (Millipore; MA, USA). The membranes were blocked with 5% non-fat milk in Tris-buffered saline for 1 hour at room temperature. Following overnight incubation at 4° C. with primary antibodies, the antigens are detected with horseradish peroxidase-conjugated secondary antibodies (Bio-Rad; CA, USA; 1:20,000), an ECL kit (Amersham; NJ, USA), and exposed to films. For pulse-chase experiments, cells were grown to 80% confluency and incubated in methionine-free DMEM for 90 min. Cells were labeled with [^35]S-methionine (400 μCi/ml in methionine-free DMEM plus 5% dialyzed FBS) for 10 min at 37° C., and the medium was replaced with serum-free DMEM medium plus Ni-supplement (Sigma Inc.; MI, USA). The media were collected and cells were lysed after different time periods. Protein concentrations were determined and the same amounts of proteins were immunoprecipitated with antibodies at 4° C. overnight 25 μl of anti-mouse IgG agarose (Roche) was then added to each sample and incubated at 4° C. for 2 hours on a rocker platform. The immunoprecipitates were collected by centrifugation and washed 4 times with the washing buffer (0.1% Triton, 20 mM Hepes, 150 mM NaCl, 10% glycerol). The agarose beads were resuspended in 30 μl SDS-PAGE sample buffer boiled for 3 min to release the proteins. After 2 min of centrifugation, the supernatants were separated on 8% Tri-glycine gels. The gels were dried and subjected to autoradiography and quantitated by NIH image.
To independently verify the data on APP degradation, the effect of two protease inhibitors, leupeptin and MG132, on the secretion and the intracellular accumulation of APP was studied. Leupeptin is thought to inhibit lysosomal proteases, whereas MG132 is thought to inhibit ER membrane protein degradation through the ubiquitin-proteasome pathway (Soriano et al. (1999) J. Biol. Chem., 274: 32295-32300).

[6] = 100 μM, either cells, data not shown

Compound: EERGVKLGLGDFIFYSVLVGKA [consensus]
interaction with PBP [1]: exhibit an interaction

functional interaction with PS1 [2]: nor did it functionally interact | interaction with PS1 [3]: did not show any interaction
Compound: Dock 180: protein 40% homologous to PBP, has a SH3 domain and interacts with Crk [reference compound]
secretion of APP [4]: not affected

Compound: CC(C)C[C@@H](C=O)NC(=O)[C@H](CC(C)C)NC(=O)[C@H](CC(C)C)NC(=O)OCc1ccccc1 [MG132] (Cbz-Leu-Leu-Leu-aldehyde)
APP secretion ([5]; 10 μM, APP695/PBP cells): significantly increased | intracellular accumulation of APP ([5]; 10 μM, APP695/PBP cells): significantly increased | secretion of APP in cells expressing PBP ([5]; after 16 hours of treatment): almost restored to the control level

Compound: CC(=O)N[C@@H](CC(C)C)C(=O)N[C@@H](CC(C)C)C(=O)N[C@H](C=O)CCCNC(=N)N [leupeptin]
APP secretion [5, 6]: no effect | intracellular accumulation of APP [5, 6]: no effect
